Test results published in patent publication US5994336A, “Method of inhibiting proliferation of cells by administering an aminosterol compound” (priority 1995, dated 1999).
Entries after “also recorded” stand apart in the source; their conditions may differ.

Assays:
[1] = tested on: human microvascular cells; experiment: Inhibition of endothelial cell cord formation in vitro; format: cell-based; settings: words
Source text: Endothelial cells have the capacity in vitro to form tubular aggregates resembling capillaries in various early stages of formation. This conversion occurs under relatively specific conditions, in which essential growth factors along with an effective substratum are provided. It has been shown that both the interaction of growth factors with the endothelial cell and its attachment to a substratum activate the NHE. The activation of this exchanger is believed to be required for subsequent morphologic transformation of the endothelial cell into a multicellular tubular structure.
To assess the effect of compounds on the cord-like structures formed by human microvascular cells when plated in the presence of VEGF (Vascular Endothelial Growth Factor) and basic fibroblast growth factor on a collagen matrix, a standard cord formation assay was used.

[2] = tested on: capillaries of the chorioallantoic membrane; experiment: Inhibition of capillary growth in chorioallantoic membrane (CAM) model; format: in vivo, chick
Source text: The growing capillaries within the chorioallantoic membrane model (CAM model) have been used as a system in which to evaluate the effect of agents on their potential to inhibit new vessel growth. Neovascularization occurs most aggressively over the first week of embryonic development. Thereafter capillary growth is characterized by principally "elongation" rather than "de novo" formation.
In the standard assay, agents are applied locally to a region of the embryo over which neovascularization will occur. Agents are assessed by their ability to inhibit this process, as evaluated by visual examination about 7 days after application. […] The assay utilized is described in detail in Auerbach et al., Pharm. Ther. 51, 1991, 1-11.

[3] = tested on: human foreskin fibroblasts; experiment: Growth inhibition in vitro (absorbance at 600 nm); format: cell-based; settings: 10 μg/ml; FIG. 3C
[4] = tested on: human coronary artery smooth muscle; experiment: Proliferation of human coronary artery smooth muscle in vitro; format: cell-based; settings: FIG. 15
Source text: Aminosterols of the invention may also have utility in inhibiting the growth factor mediated proliferation of smooth muscle within the artery. Following coronary angioplasty, reocclusion commonly occurs, secondary to reparative proliferation of the vascular smooth muscle within the wall of the surgically manipulated blood vessel. This process generally takes place over the course of 7-10 days. To evaluate whether an agent could prevent the growth factor mediated proliferation of smooth muscle within the artery, compound 1436 was evaluated in vitro for its effect on the proliferation of human coronary artery smooth muscle. Results for compound 1436 are shown in FIG. 13, and those for squalamine are shown in FIG. 14, with FIG. 15 being a composite logarithmic plot.

vitelline capillaries = experiment: Chick embryo vitelline capillary regression assay; format: in vivo; design: key to vascular reactivity: +: Vascular reactivity; 0: No vascular reactivity; +/-: Equivocal reactivity; settings: for vascular reactivity: 60 minutes
Description: Using the chick embryo vitelline capillaries assay, compounds were tested for their ability to induce capillary regression. Each compound was applied in 0.1 ml of 15% Ficol 400 and PBS onto the embryo, and vascular regression was assessed after 60 minutes.
The 3-day chick embryo consists of an embryonic disc from which numerous vessels emerge and return, forming a "FIG. 8"-shaped structure--the embryo in the center with vascular loops extending outward over both poles. […] Following a lag period of around 15 minutes, the constriction of continuity between capillary and secondary vessels, generally on the "venous" side, was observed. Continued pulsatile blood flow progressed, resulting in a "swelling" of the blind tube, followed by a pinching off of the remaining connection and formation of an enclosed vascular sac resembling a "blood island." This process progressed until only the largest vessels remained intact.

human NHE1 = experiment: NHE1 inhibition, internal pH (BCECF-AM) in transfected PS120 fibroblasts; format: cell-based; settings: 5 μg/ml; FIG. 2B
Description: (§1) PS120 fibroblasts transfected with rabbit or human NHE1 were grown as described above.

rabbit NHE1 = experiment: as above; format: cell-based; settings: 5 μg/ml; FIG. 2A
Description: as §1

rabbit NHE3 = target: T1, rabbit NHE3 (Oryctolagus cuniculus, UniProt P26432); format: cell-based
T1 construct: BCECF internal pH recovery

[5] = tested on: Xenopus tadpole, stage 59-60; experiment: Tadpole assay; format: in vivo, Xenopus laevis; settings: 10 μg/ml; for pharmacological response in tadpole (words): stage 59-60
Source text: For example, substances that destroy all of the animal's epithelium, both adult and embryonic, could be regarded as toxic.
The volume of liquid is sufficient for the animal to swim freely and drink from the solution. […] If the volume of liquid is not sufficient to permit oral intake, the effects that are observed would result from absorption through the surface epithelium.
In another embodiment of this assay, a solution of a compound in water can be injected directly into the abdomen of the animal using standard techniques.
After an amount of time, typically about 60 minutes, the occlusion of blood flow through capillaries in the tadpole's tail are observed under an inverted microscope at a magnification of roughly 100×.
In the assay, each of the steroids was dissolved in 100 ml of distilled water at a concentration of 10 μg/ml. Stage 59-60 Xenopus tadpoles were introduced and evaluated by light microscopy and gross observation 1 hour later.

[6] = tested on: bovine pulmonary endothelial cells; experiment: Growth inhibition in vitro (absorbance at 600 nm); format: cell-based; settings: 1 μg/ml; FIG. 3A
[7] = tested on: human umbilical venous endothelial cells; experiment: LPS-induced neutrophil adherence; format: cell-based; settings: squalamine 10 μg, 1.0 μg or 0.1 μg
Source text: Methods 109, 1988, 175-184.

B16 melanoma = experiment: Synergistic inhibition of tumor growth, B16 melanoma model; format: in vivo, mouse; settings: squalamine alone
Description: Based on the idea that tumor growth involves both the clonal expansion of a malignant cell along with the development of a supporting vascular supply, a combination of compound 1436 with squalamine was tested to determine whether it would achieve a synergistic effect on solid tumor growth. This concept was evaluated in the B16 melanoma model.
Animals were implanted with B16 melanoma followed by treatment with compound 1436 or 1256 administered in a combined schedule or separately. […] Thus, a combination of these two compounds achieves a therapeutic benefit in tumors dependent on neovascularization that may prevent metastatic spread.

B16 = experiment: Cytostatic activity against B16 in culture; format: cell-based, murine; settings: except at very high concentrations
[8] = listed as Compound 1256 (Squalamine)

T1 sequence (P26432 30-832): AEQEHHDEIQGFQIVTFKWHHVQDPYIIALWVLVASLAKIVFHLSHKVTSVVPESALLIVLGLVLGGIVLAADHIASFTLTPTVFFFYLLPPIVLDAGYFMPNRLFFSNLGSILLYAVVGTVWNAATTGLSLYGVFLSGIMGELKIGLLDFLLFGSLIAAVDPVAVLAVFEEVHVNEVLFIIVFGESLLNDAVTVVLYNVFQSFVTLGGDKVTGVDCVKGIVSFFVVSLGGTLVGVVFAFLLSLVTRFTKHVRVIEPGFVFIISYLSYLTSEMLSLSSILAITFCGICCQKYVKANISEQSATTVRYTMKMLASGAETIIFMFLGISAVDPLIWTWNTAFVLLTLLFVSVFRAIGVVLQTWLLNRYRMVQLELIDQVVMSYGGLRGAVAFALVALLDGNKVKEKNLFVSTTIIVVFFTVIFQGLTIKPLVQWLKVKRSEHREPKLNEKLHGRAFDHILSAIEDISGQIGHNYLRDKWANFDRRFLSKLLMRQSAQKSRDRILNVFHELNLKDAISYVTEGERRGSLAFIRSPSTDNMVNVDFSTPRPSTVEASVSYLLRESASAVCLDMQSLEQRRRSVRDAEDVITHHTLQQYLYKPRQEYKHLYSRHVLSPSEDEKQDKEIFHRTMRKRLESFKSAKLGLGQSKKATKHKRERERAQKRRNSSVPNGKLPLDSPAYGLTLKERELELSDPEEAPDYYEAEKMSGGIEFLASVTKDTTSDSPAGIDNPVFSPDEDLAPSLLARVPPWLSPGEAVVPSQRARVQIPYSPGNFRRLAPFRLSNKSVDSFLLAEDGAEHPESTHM

CC(C)[C@@H](CC[C@@H](C)[C@H]1CC[C@H]2[C@@H]3[C@H](O)C[C@H]4C[C@@H](NCCCNCCCCN)CC[C@]4(C)[C@H]3CC[C@]12C)OS(=O)(=O)O [squalamine]
effect on cell viability or proliferation at cord-inhibiting concentrations [1]: does not appear to profoundly affect cell viability or proliferation
inhibition of CAM vessel neovascularization ([2]; 3-day CAM, 0.65 μg): inhibition of CAM vessel neovascularization
vascular irritation ([2]; 3-day embryo, 20 and 40 μg (values marked *)): Some vascular irritation noted
Percentage positive (positive/total) ([2]; 13-day embryo, 5.0 μg applied): 0/26
inhibition of CAM capillary growth ([2]; 13-day old chick, ten times 0.65 μg): no inhibitory effect
growth of fibroblast line [3]: no effect
suppression of growth in vitro [4]: suppress in vitro the growth of human coronary artery smooth muscle
activity on vitelline capillaries (vitelline capillaries): especially active
vascular reactivity (vitelline capillaries; 0.001 μg applied): 0
vascular reactivity (vitelline capillaries; 0.01 μg applied): +
vascular reactivity (vitelline capillaries; 0.1 μg applied): +
vascular reactivity (vitelline capillaries; 1 μg applied): +
vascular reactivity (vitelline capillaries; 10 μg applied): +
disruption of vitelline capillaries (vitelline capillaries; 3- to 5-day chick embryos): found to disrupt vitelline capillaries
lag period before capillary constriction (vitelline capillaries; 3-day chick embryo): around 15 minutes
hemolysis (vitelline capillaries; chick embryo, microscopic observation): absence of hemolysis
inhibitory activity against human NHE1 (human NHE1): no inhibitory activity
inhibitory activity against rabbit NHE1 (rabbit NHE1): no inhibitory activity
resting internal pH (rabbit NHE3; 5 μg/ml, cells not acid-preloaded, FIG. 1B): the resting pH of these cells was also inhibited
inhibition of NHE3, effect on Km and Vmax (rabbit NHE3; squalamine 5 μg/ml, FIGS. 1A, 1B): inhibited NHE3 with respect to proton concentration at both Km and Vmax levels
inactivation of exchanger compared with amiloride (rabbit NHE3; words): more profoundly inactivated by squalamine than by amiloride
specificity NHE3 over NHE1 (rabbit NHE3; words): specificity for NHE3 over NHE1
tissues or functions not affected in tadpole [5]: unaltered blood flow through the fine capillaries of the hands and feet
pharmacological response in tadpole (words) [5]: blood flow through the capillaries of the tail shut down; also recorded: common vascular occlusive effect
pharmacological response in tadpole (words) [5, 8]: Vascular occlusion in fine capillaries of tail
tissues or functions not affected in tadpole [5, 8]: No effect on vascular flow through hands or feet
growth of bovine pulmonary endothelial cells [6]: inhibited the growth
inhibition of neutrophil adherence [7]: no inhibition
impact on tumor volume (B16 melanoma; 5 mg/kg/day, FIG. 12): no significant impact on tumor volume
effect compared with combination (B16 melanoma; 15 mg/kg/day): Neither administration of squalamine at 15 mg/kg/day nor compound 1436 alone in a tolerable schedule could achieve this effect
cytostatic activity against B16 in culture (B16): minimal cytostatic activity
